# Reference: patent publication US20250382556A1, “MODULATION OF THE BRANCHED-CHAIN METABOLITE CONTENT OF FRUITS AND VEGETABLES” (BOARD OF TRUSTEES OF MICHIGAN STATE UNIVERSITY, priority 2024, published 2025)
# Legend:
# apple fruit = experiment: Headspace volatile ester emissions of ripening apple fruit treated with AHAS inhibitor; assay type: in vivo, Malus x domestica Borkh.; set-up: key to butyl acetate emissions compared to control / hexyl acetate emissions compared to control / ethyl acetate emissions compared to control / propyl acetate emissions compared to control: —: Dash indicates no significant difference between treatments; conditions: for 2-methylbutyl acetate (ile) emissions compared to control / 2-methylpropyl acetate (val) emissions compared to control / butyl acetate emissions compared to control / ethyl acetate emissions compared to control / hexyl acetate emissions compared to control / pentyl acetate emissions compared to control / propyl acetate emissions compared to control / sum of anteiso- and iso-branched-chain esters emissions compared to control: 1 mM daily
# Description: Whole apple fruit, freshly harvested and at an early stage of ripening (‘ripening’), were held at room temperature (22° C.) and rubbed daily with 3 mL of a freshly made 1mM solution of the inhibitor rimsulfuron (N-((4,6-dimethoxypyrimidin-2-yl)aminocarbonyl)-3-(ethylsulfonyl)-2-pyridinesulfonamide, made from DuPont MATRIX® SG, 25% w/w active ingredient; 0.1% Tween 20) or water solution containing 0.1% Tween 20 before preparation with further treatments. Flowering quince fruit were smaller than the apple fruit and had 2 mL of the control and treatment solutions applied daily at 22° C. ‘Gala’, ‘Empire’, and ‘Jonagold’ apple fruit were treated for four, nine, and seven days before further preparation, respectively. Flowering quince fruit were treated for six days before analysis. Headspace volatile emissions were monitored for three or four representative fruits during the incubation/treatment period to determine appropriate times for further treatments. During method testing, 1 mM solutions of the imidazolinone imazamox was also assessed with apple fruit (2-[4,5-dihydro-4-methyl-4-(1-methylethyl)-5-oxo-1H-imidazol-2-yl]-5-(methoxymethyl)-3-pyridinecarboxylic acid, made from RAPTOR®, 12.1% w/w active ingredient; 0.1% Tween 20).
# (§1) Headspace volatiles from small tissue samples incubated in 22 mL vials were adsorbed for 30 s using a solid-phase micro extraction (SPME) fiber (65 μm PDMS-DVB; Supelco Analytical). The SPME fiber was then directly desorbed for 1 min in the injection port of a gas chromatograph (GC; HP-6890, Hewlett-Packard) coupled to a time-of-flight mass spectrometer (MS; Pegasus II, LECO). Whole fruits and banana slices were incubated for 20 min at room temperature (22° C.) in 1-L sealed Teflon jars before a 15-s, or 3-min adsorption and 1- or 2-min desorption. Adsorption times were adjusted to ensure instrument responses were in the linear range. All desorbed volatiles were cryofocused at the beginning of the column by immersing said region of the column in liquid nitrogen. After the desorption period, the run was initiated and the liquid nitrogen removed.
# (§2) The conditions of the system were as follows. Injection port: 200° C., splitless, ultra-purified helium (99.999%) carrier gas, front inlet flow 1.5 mL·min^−1 constant, 10 mL·min^−1 purge flow, 11.5 mL·min^−1 total flow. Oven: initial temperature 40° C. for 0 min, ramped by 43° C.·min^−1 to 185° C. for 0 min. Column: HP-5 MS, 30 m×0.25 mm i.d., 0.25 μm film thickness (Agilent). Transfer line temperature 225° C. MS: Electron ionization (−70 eV), ion source temperature 200° C., solvent delay 50 sec, m/z range 29 to 400, detector voltage 1500 V, data collection rate 20 Hz.
# Compounds were identified by comparison of the retention time and mass spectrum against authenticated reference standards and spectra (National Institute of Standards and Technology Mass Spectral Search Program Version 2.0, 2001). Volatiles were quantified by calibration with a standard of 59 authenticated, high-purity compounds (Sigma-Aldrich Co. and Fluka Chemical) including the target compounds. The standard was made by placing 0.5 μL of an equal-part mixture of the neat compounds onto a disc of filter paper before quickly placing the filter paper into a 4-L sealed flask fitted with a Mininert valve (for SPME fiber access, and allowed to vaporize for at least 6 hours. SPME adsorption and desorption times of the standard matched that of the samples quantified (e.g., 30-s adsorption, 1 min desorption when quantifying samples in 22-mL vials).
# Statistical analysis was performed using SciPy (v1.6.2), RStudio (v2023.03.0+386), or Microsoft Excel (v16.89). Against a specified value: one-tailed t-test Against two treatments: paired t-test for banana, two-sample t-test for apple and flowering quince. Against more than two treatments: Tukey's test following significant ANOVA. Analyses of branched-chain amino acids were one-tailed, all other metabolites were two-tailed. […]
# apple peel tissues = experiment: Labeled (1,2-13C2) acetate and methanol feeding of excised apple peel; set-up: species or system Malus x domestica Borkh.; conditions: for reduction of methyl 2-methylbutanoate content: 1 mM rimsulfuron
# Description: Acetate feedings were likewise performed with excised peel tissues in 22-mL glass vials and 20 μL of treatment solution. ‘Gala’ fruit were fed with 10 mM methanol, 10 mM acetate (unlabeled or 1,2-^13C2) pH 7 balanced with KOH, 0.05% Tween 20, and 0.5 mM rimsulfuron if appropriate. These concentrations were doubled for ‘Empire’ and ‘Jonagold’ fruit.
# as §1, §2
# apple fruit peel = experiment: Complementation of inhibitor-treated apple peel with branched-chain precursors; set-up: species or system Malus x domestica Borkh.
# Description: α-Ketoacids (2-oxo acids) were fed to ‘Empire’ and ‘Jonagold’ fruit by preparing vials of excised peel tissue discs in 22-mL glass vials using 20 μL of treatment solution on the prepared paper-peel disc units. Treatment solution contained 20 mM methanol, 0.1% Tween 20, 20 mM of α-keto-β-methylvalerate (3-methyl-2-oxopentanoate), α-ketoisovalerate (3-methyl-2-oxobutanoate), or α-ketoisocaproate (4-methyl-2-oxopentanoate), and when appropriate, 1 mM rimsulfuron.
# ‘Red Delicious’ apple fruit held in refrigerated air for 5 months (see above) plus 1 day at 22° C. and at an advanced ripeness stage (‘ripe’) were treated with rimsulfuron (1 mM) with 0.2% Tween 20 on day 0 of the study and for the next three consecutive days as above described. The fruit were evaluated daily for volatile emissions (see below) for eight days. On days 0, 2, 4, and 7, representative treated and untreated fruit were selected for tissue collection for metabolite analysis (see below). On day 7, samples of fruit peel were fed, as described above, with water or 20 mM isoleucine or α-keto-β-methylvalerate.
# Headspace volatiles from small tissue samples incubated in 22 mL vials were adsorbed for 30 s using a solid-phase micro extraction (SPME) fiber (65 μm PDMS-DVB; Supelco Analytical). […]
# [1] = ripening Empire apple peel, nine days
# [2] = ripening Gala apple peel, four days
# [3] = ripening Jonagold apple peel, seven days
smiles,measurement,setting,value
"CCS(=O)(=O)c1cccnc1S(=O)(=O)NC(=O)Nc1nc(OC)cc(OC)n1 [rimsulfuron, N-((4,6-dimethoxypyrimidin-2-yl)aminocarbonyl)-3-(ethylsulfonyl)-2-pyridinesulfonamide]","concentration of pentyl acetate, more abundant when treated","apple fruit; all three cultivars (Gala, Empire, Jonagold), on average",1.63 fold
same,2-methylbutyl acetate (ile) emissions compared to control,apple fruit; [1],1.9 ± 0.6%
same,2-methylpropyl acetate (val) emissions compared to control,apple fruit; [1],27.3 ± 5.4%
same,butyl acetate emissions compared to control,apple fruit; [1],—
same,ethyl acetate emissions compared to control,apple fruit; [1],61.4 ± 7.9%
same,hexyl acetate emissions compared to control,apple fruit; [1],—
same,pentyl acetate emissions compared to control,apple fruit; [1],161.9 ± 16.0%
same,propyl acetate emissions compared to control,apple fruit; [1],53.8 ± 8.5%
same,sum of anteiso- and iso-branched-chain esters emissions compared to control,apple fruit; [1],0.8 ± 0.2%
same,2-methylbutyl acetate (ile) emissions compared to control,apple fruit; [2],27.0 ± 6.3%
same,2-methylpropyl acetate (val) emissions compared to control,apple fruit; [2],36.4 ± 5.0%
same,butyl acetate emissions compared to control,apple fruit; [2],—
same,ethyl acetate emissions compared to control,apple fruit; [2],57.7 ± 9.3%
same,hexyl acetate emissions compared to control,apple fruit; [2],—
same,pentyl acetate emissions compared to control,apple fruit; [2],155.3 ± 17.5%
same,propyl acetate emissions compared to control,apple fruit; [2],—
same,sum of anteiso- and iso-branched-chain esters emissions compared to control,apple fruit; [2],19.0 ± 4.5%
same,effect on butyl acetate,"apple fruit; ripening Gala, Empire and Jonagold",no discernible effect
same,reduction of the total content of anteiso-branched-chain esters in the headspaces,"apple fruit; ripening Gala, Empire and Jonagold apple fruits, on average",91.2%
same,2-methylpropyl acetate in headspace following treatment,"apple fruit; ripening Gala, Empire and Jonagold, all three cultivars",reduced
same,2-methylbutyl acetate (ile) emissions compared to control,apple fruit; [3],16.1 ± 1.4%
same,2-methylpropyl acetate (val) emissions compared to control,apple fruit; [3],67.6 ± 4.1%
same,butyl acetate emissions compared to control,apple fruit; [3],—
same,ethyl acetate emissions compared to control,apple fruit; [3],—
same,hexyl acetate emissions compared to control,apple fruit; [3],162.7 ± 19.2%
same,pentyl acetate emissions compared to control,apple fruit; [3],172.3 ± 20.2%
same,propyl acetate emissions compared to control,apple fruit; [3],—
same,sum of anteiso- and iso-branched-chain esters emissions compared to control,apple fruit; [3],6.5 ± 0.5%
same,M+1 and M+2 methyl pentanoate isotopologs collectively more enriched after treatment,"apple peel tissues; Empire and Jonagold, on average, 1,2-13C2 acetate",4.28 fold
same,reduction of methyl 2-methylbutanoate content,apple peel tissues; Empire peel fed methanol and acetate,99.4%
same,reduction of methyl 2-methylbutanoate content,apple peel tissues; Jonagold peel fed methanol and acetate,100%
same,enrichment of M+1 isotopolog of methyl hexanoate,"apple peel tissues; Jonagold, 1,2-13C2 acetate",slightly more enrichment than controls
same,ester production after feeding isoleucine or α-keto-β-methylvalerate to inhibitor-treated peels,"apple fruit peel; ripe Red Delicious, 20 mM precursor on day 7",recovery of anteiso-branched-chain esters
same,2-methylbutyl and 2-methylbutanoate esters after exogenous feeding of α-keto-β-methylvalerate to inhibitor-treated fruit,"apple fruit peel; ripening Jonagold and Empire, 20 mM α-ketoacid",at least a partial rescue
